Source: ChEMBL document CHEMBL1131912, “Synthesis of potent and selective inhibitors of human plasma kallikrein” (Bioorg Med Chem Lett, 1999)

Legend:
[1] = target: Plasma kallikrein (Homo sapiens, UniProt P03952); experiment: Inhibitory activity of compound against human plasma Kallikrein (PK); assay type: cell-free
[2] = target: Kallikrein-1 (Homo sapiens, UniProt P06870); experiment: Inhibitory activity of compound against Tissue Kallikrein (TK)
Chain of Kallikrein-1 (P06870 whole entry): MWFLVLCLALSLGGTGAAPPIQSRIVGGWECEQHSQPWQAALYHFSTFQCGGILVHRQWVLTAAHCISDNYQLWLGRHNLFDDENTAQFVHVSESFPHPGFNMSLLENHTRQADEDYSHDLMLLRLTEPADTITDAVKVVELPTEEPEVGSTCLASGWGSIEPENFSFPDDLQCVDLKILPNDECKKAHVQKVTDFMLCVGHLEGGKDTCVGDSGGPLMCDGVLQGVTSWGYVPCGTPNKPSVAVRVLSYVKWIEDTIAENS

Chain of Plasma kallikrein (P03952 20-390 limits assumed): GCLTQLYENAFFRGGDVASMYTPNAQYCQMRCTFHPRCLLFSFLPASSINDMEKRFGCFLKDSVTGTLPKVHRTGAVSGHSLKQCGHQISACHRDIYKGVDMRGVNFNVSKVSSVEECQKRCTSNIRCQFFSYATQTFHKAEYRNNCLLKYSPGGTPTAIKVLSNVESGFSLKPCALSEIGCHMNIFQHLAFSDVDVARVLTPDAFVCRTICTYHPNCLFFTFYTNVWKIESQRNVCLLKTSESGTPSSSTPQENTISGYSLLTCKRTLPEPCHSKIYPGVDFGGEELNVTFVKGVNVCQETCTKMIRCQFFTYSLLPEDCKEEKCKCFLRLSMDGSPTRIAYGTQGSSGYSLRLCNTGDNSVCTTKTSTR
Chain of Plasma kallikrein (P03952 391-638 limits assumed): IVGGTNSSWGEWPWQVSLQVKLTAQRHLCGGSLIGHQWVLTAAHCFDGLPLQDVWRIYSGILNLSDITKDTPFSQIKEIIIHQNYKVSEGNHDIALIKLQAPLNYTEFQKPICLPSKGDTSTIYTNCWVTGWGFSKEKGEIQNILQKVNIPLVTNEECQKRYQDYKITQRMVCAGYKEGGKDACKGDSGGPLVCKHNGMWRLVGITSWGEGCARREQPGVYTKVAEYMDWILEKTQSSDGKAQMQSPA

Ki [1] [µM]	Ki [2] [µM]	Structure (SMILES)
0.5	> 50	CC(C)(C)[C@@H](NC(=O)OC12CC3CC(CC(C3)C1)C2)C(=O)N[C@H](C(=O)NC(Cc1ccc(NC(=N)N)cc1)C(=O)C(F)(F)F)c1ccc2ccccc2c1 (some centres undefined)
0.005	191	CC(C)[C@@H](NC(=O)OC12CC3CC(CC(C3)C1)C2)C(=O)N[C@@H](Cc1ccccc1)C(=O)NC(Cc1ccc(NC(=N)N)cc1)C(=O)C(F)(F)F (some centres undefined)
0.002	47.3	CC(C)(C)[C@@H](NC(=O)OC12CC3CC(CC(C3)C1)C2)C(=O)N[C@@H](Cc1ccccc1)C(=O)NC(Cc1ccc(NC(=N)N)cc1)C(=O)C(F)(F)F (some centres undefined)

Continued, molecule first:

Structure (SMILES)	Ki [1] [µM]	Ki [2] [µM]
CC(C)(C)[C@@H](NC(=O)N1CCOCC1)C(=O)NCC(=O)NC(Cc1ccc(NC(=N)N)cc1)C(=O)C(F)(F)F (some centres undefined)	15.5	> 150
CC(C)(C)[C@@H](NC(=O)N1CCOCC1)C(=O)N[C@@H](Cc1ccccc1)C(=O)NC(Cc1ccc(NC(=N)N)cc1)C(=O)C(F)(F)F (some centres undefined)	0.028	> 2500
N=C(N)Nc1ccc(CC(NC(=O)[C@H](Cc2ccccc2)NC(=O)[C@@H](CCc2ccccc2)NC(=O)OC23CC4CC(CC(C4)C2)C3)C(=O)C(F)(F)F)cc1 (some centres undefined)	0.004	7
CC(C)(C)OC(=O)N[C@H](Cc1ccccc1)C(=O)N[C@H](C(=O)NC(Cc1ccc(NC(=N)N)cc1)C(=O)C(F)(F)F)c1ccc2ccccc2c1 (some centres undefined)	0.089	223
